Read-outs that look alike come from different tables or passages of the source. Where no end group is shown, it is not given here.
Assays:
[1] = cited from earlier work
[2] = LD50 (species not stated); assay type: in vivo; conditions: conversion in brackets
cell membrane = conditions: not told; cited from earlier work
HSV-1, HSV-2, VZV, HCMV = assay: Antiviral screening study of condensing compounds; assay type: cell-based; conditions: result in words
Description: PAMAM Dendrimer G0, branched polyethylenimine (bPEI), Arg5+, DAB-AM-4, and DAB-AM-8 were utilized as test compounds. These compounds are described above.
Monolayers of HFF cells were prepared in six-well plates and incubated at 37° C. for 2 d to allow the cells to reach confluency. Media was then aspirated from the wells and 0.2 ml of virus was added to each of three wells to yield 20-30 plaques in each well. The virus was allowed to adsorb to the cells for 1 h and the plates were agitated every 15 minutes. Compounds were diluted in assay media consisting of MEM with Earl's salts supplemented with 2% FBS, L-glutamine, penicillin, and gentamycin. Solutions ranging from 300 μM to 0.1 μM were added to duplicate wells and the plates were incubated for various times, depending on the virus used. For HSV-1 and -2, the monolayers were then stained with 1% crystal violet in 20% methanol and the unbound dye removed by washing with dH2O. For all other assays, the cell monolayer was stained with 1% Neutral Red solution for 4 h then the stain was aspirated and the cells were washed with PBS. For all assays, plaques were enumerated using a stereomicroscope and the concentration of compound that reduced plaque formation by 50% (EC50) was interpolated from the experimental data.

[3] = system: packaged viral DNA in the capsid; conditions: low-salt buffer, Mg2+ removed by EDTA
Excerpt: (§1) [formula] […] Single-Molecule Fluorescence Measurements of Phage Ejection Ensemble Kinetics.
Phage particles were imaged using a Nikon 2000E2 microscope with a spinning disk confocal scan head (Yokagawa Industries, Tokyo, Japan).

phage λ = assay: Intracapsid DNA transition temperature by ITC and SAXS; design: species or system bacteriophage λ; conditions: 78% WT DNA length phage λ, 20 mM EDTA added to 10 mM MgCl2 Tris-buffer
Excerpt: WT bacteriophage λ cI857, with a genome length of 48.5 kb was produced by thermal induction of lysogenic E. coli strain AE1 derived from the 52773 strain. Two phage λ mutants with shorter genome lengths (78 and 94% of the WT DNA length) were produced using a similar procedure. The receptor was the LamB protein purified from pop 154, a strain of E. coli K12 in which the LamB gene has been transduced from Shigella sonnei 3070. Phage and LamB purification details are described in Evilevitch A., et al., Osmotic pressure inhibition of DNA ejection from phage. Proc. Natl. Acad. Sci. U.S.A. 2003; 100:9292-9295 and Ivanovska I., et al., Internal DNA pressure modifies stability of WT phage. Proc. Natl. Acad. Sci. U.S.A. 2007; 104:9603-9608.
All calorimetric measurements were performed using the MicroCal iTC200 system manufactured by GE Healthcare, Life Sciences. […] J. Mol. Biol. 2010; 395:1079-1087.
Small angle X-ray scattering (SAXS) measurements were carried out at the 12-ID B station at the Advanced Photon Source at Argonne National Laboratory. A 12-KeV X-ray beam was used to illuminate the sample with an overall scattering vector q range from 0.006 to 0.850 Å-1. A total of 120 μl of phage solution (˜5×1013 pfu/ml) was injected into a flow-through glass capillary and the solution was oscillated during the SAXS measurement with a flow rate of 10 μl/s. Forty scans with 1 s X-ray exposure time were collected and averaged for each sample. A buffer solution of the dialysis buffer for phage samples was measured using the same SAXS setup, which was further subtracted as the background. After the background subtraction, the scattered intensity I versus q was plotted and the DNA peak region was truncated from 0.18 Å-1 to 0.33 Å-1. This DNA diffraction peak was fitted with a Gaussian curve plus a linear background using function (1), where q0 is the peak center, w is the peak width, A0 is the peak area, k is the slope of the linear background and c is the offset.
as §1
ITC and SAXS assays were used to determine DNA transition temperatures for WT λ-DNA length phage in MgCl2 Tris-buffer with MgCl2 concentrations varied between 5 and 50 mM, see FIGS. 3A-3C. The intracapsid DNA transition occurs at temperature T*, corresponding to either a discontinuity in the linear dependence of ΔHej on temperature (FIG. 3A) or to an abrupt change in the linear decay of the DNA diffraction peak area versus temperature measured by SAXS (FIG. 3B). DNA transition temperatures as a function of Mg-concentration determined by both techniques are in good agreement with each other and are summarized in FIG. 3C. […] However, the inventors have previously shown that at DNA packing density in phage λ, the screening effect of Mg-ions will become progressively smaller with increasing Mg-concentration due to the counter-ion saturation (Evilevitch A., et al., Effects of salt concentrations and bending energy on the extent of ejection of phage genomes. Biophys. J. 2008; 94:1110-1120). Furthermore, if the Mg ion concentration continues to increase, the counterions are forced into regions on the helices that begin to increase the effective repulsions between packaged DNA strands. […]

## O=C(O)[C@@H](S)[C@@H](S)C(=O)O [DMSA, meso-2,3-Dimercaptosuccinic acid]
[1]; species and route not given
  LD50: 5011 mg/kg
[2]
  LD50 as concentration: ~27.5 mM

## O=C(O)CN(CCOCCOCCN(CC(=O)O)CC(=O)O)CC(=O)O [EGTA, Ethylene glycol-bis(2-aminoethylether)-N,N,N′,N′-tetraacetic acid]
[1]; in vivo
  LD50: 3587 mg/kg
[2]
  LD50 as concentration: ~9.5 mM

## RRRRR [Arg5+]
Cell membrane
  permeation of the cell membrane: permeate the cell membrane
HSV-1, HSV-2, VZV, HCMV
  antiviral activity in the screening study: showed antiviral activity

## O=C(O)CN(CCN(CC(=O)O)CC(=O)O)CC(=O)O [EDTA, Ethylenediaminetetraacetic acid]
[3]
  DNA ejection from the capsid: essentially stalled
  infection: no infection is observed
Phage λ
  DNA transition temperature T*: ~36 °C

Source: patent US10702572B2, “Methods and compounds to suppress viral genome release and packaging” (Carnegie Mellon University, priority 2015, dated 2020)
